Measurements reported in US9732094B2, “Arylquinazolines” (Merck Patent GmbH, priority 2013, dated 2017).
Read-outs that look alike come from different tables or passages of the source.

Key:
[1] = biological target: DNA-PK (Homo sapiens (Human), UniProt P78527); test: DNA-PK assay (biochemical), flashplate 33P-ATP kinase assay; conditions: enzymatic; 5 μM ATP
How it was run: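 Radiometric kinase reaction in streptavidin-coated flashplates, stopped with 200 mM EDTA, then 30 min room-temperature incubation and saline washes.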

[2] = biological target: Kv11.1 (hERG) (Homo sapiens (Human), UniProt Q12809); test: Kv11.1 (hERG) ion channel activity (patch clamp assay), HEK293 cells transfected with hERG gene; conditions: patch clamp, HEK293 transfected with hERG gene
Kv11.1 (hERG), sequence (Q12809 whole entry): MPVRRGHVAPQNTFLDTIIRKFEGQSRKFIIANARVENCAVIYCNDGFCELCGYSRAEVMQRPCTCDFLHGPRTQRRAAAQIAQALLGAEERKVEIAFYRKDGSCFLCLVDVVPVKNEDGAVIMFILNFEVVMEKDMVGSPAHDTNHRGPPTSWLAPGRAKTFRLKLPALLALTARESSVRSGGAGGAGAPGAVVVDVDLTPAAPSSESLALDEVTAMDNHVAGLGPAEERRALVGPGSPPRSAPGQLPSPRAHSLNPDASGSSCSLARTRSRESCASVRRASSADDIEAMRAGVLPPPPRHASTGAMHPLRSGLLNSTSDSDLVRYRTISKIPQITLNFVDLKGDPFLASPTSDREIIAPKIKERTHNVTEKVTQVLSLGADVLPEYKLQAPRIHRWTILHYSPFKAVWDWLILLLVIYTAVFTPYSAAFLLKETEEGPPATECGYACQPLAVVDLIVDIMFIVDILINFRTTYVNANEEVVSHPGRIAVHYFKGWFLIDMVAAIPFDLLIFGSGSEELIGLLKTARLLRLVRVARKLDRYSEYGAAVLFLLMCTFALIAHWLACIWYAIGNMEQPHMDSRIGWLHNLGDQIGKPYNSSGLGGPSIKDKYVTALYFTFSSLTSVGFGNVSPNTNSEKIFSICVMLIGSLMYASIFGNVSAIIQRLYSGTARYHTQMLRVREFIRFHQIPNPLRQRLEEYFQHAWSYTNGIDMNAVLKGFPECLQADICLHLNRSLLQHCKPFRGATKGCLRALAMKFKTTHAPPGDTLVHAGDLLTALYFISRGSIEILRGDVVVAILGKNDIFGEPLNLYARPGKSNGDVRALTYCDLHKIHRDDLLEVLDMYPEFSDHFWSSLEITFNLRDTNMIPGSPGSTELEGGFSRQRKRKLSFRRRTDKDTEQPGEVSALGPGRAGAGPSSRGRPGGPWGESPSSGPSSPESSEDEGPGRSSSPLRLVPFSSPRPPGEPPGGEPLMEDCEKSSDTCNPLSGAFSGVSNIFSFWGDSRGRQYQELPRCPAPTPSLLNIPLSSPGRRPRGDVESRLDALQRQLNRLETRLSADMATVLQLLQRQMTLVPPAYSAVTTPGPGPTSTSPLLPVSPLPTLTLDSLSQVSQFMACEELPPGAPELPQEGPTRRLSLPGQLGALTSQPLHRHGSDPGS

[3] = biological target: DNA-PK phosphorylation at serine 2056 (Homo sapiens (Human), UniProt P78527); test: DNA-PK phosphorylation at serine 2056 (cellular), bleomycin-treated HCT116 cells, ELISA; type: cell-based; conditions: cellular; HCT116 cells, 10 μM bleomycin, six hours; read-out: IC50 pDNA-PK
How it was run: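 Chemiluminescent ELISA quantified DNA-PK Ser2056 phosphorylation relative to total DNA-PKcs in HCT116 cells. Cells received compounds together with 10 μM bleomycin for 6 h; DMSO served as blank.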

Structure (SMILES)	IC50 [1]	IC50 [3]	Ki ([2]; Ki [Kv1.11 hERG])	Ki ([2]; read-out: Ki [Kv1.11 hERG])
COc1nccnc1C(O)c1ccc(F)c(-c2ncnc3cc(N4CCOCC4)ccc23)c1 (stereo not drawn) [Example 16, [4-Fluoro-3-(7-morpholin-4-yl-quinazolin-4-yl)phenyl]-(3-methoxy-pyrazin-2-yl)methanol]	0.007 to 0.03 µM	0.5 to 5 µM	–	> 25 µM
O[C@@H](c1ccc(F)c(-c2ncnc3cc(N4CCOCC4)ccc23)c1)c1nccnc1Cl [Example 28, (S)-(3-Chloro-pyrazin-2-yl)-[4-fluoro-3-(7-morpholin-4-yl-quinazolin-4-yl)phenyl]-methanol]	0.007 to 0.03 µM	5 to 10 µM	15 to 25 µM	–
OC(c1ccc(F)c(-c2ncnc3cc(N4CCOCC4)ccc23)c1)c1nccnc1OC1COC1 (stereo not drawn) [Example 32, [4-fluoro-3-(7-morpholin-4-yl-quinazolin-4-yl)phenyl]-[3-(oxetan-3-yloxy)-pyrazin-2-yl]methanol]	0.007 to 0.03 µM	5 to 10 µM	15 to 25 µM	–
OC(c1ccc(F)c(-c2ncnc3cc(N4CCOCC4)ccc23)c1)c1cnccn1 (stereo not drawn) [Example 33, [4-Fluoro-3-(7-morpholin-4-yl-quinazolin-4-yl)phenyl]-pyrazin-2-ylmethanol]	0.007 to 0.03 µM	10 to 30 µM	–	< 10 µM
OC(c1cnccn1)c1cc(-c2ncnc3cc(N4CCOCC4)ccc23)c(F)cc1Cl (stereo not drawn) [Example 34, [2-Chloro-4-fluoro-5-(7-morpholin-4-yl-quinazolin-4-yl)phenyl]-pyrazin-2-ylmethanol]	0.007 to 0.03 µM	5 to 10 µM	15 to 25 µM	–
COc1nnc(C(O)c2cc(-c3ncnc4cc(N5CCOCC5)ccc34)c(F)cc2Cl)c2ccncc12 (stereo not drawn) [Example 40, [2-Chloro-4-fluoro-5-(7-morpholin-4-yl-quinazolin-4-yl)phenyl]-(4-methoxypyrido-[3,4-d}pyridazin-1-yl)-methanol]	0.007 to 0.03 µM	0.5 to 5 µM	10 to 15 µM	–
CNC(=O)c1ccc(C(O)c2cc(-c3ncnc4cc(N5CCOCC5)ccc34)c(F)cc2Cl)nn1 (stereo not drawn) [Example 43, 6-{[2-Chloro-4-fluoro-5-(7-morpholin-4-yl-quinazolin-4-yl)phenyl]-hydroxymethyl}-pyridazine-3-carboxylic acid methylamide]	0.003 to 0.007 µM	0.5 to 5 µM	–	> 25 µM
Cc1cnnc(C(O)c2cc(-c3ncnc4cc(N5CCOCC5)ccc34)c(F)cc2Cl)c1 (stereo not drawn) [Example 46, [2-Chloro-4-fluoro-5-(7-morpholin-4-yl-quinazolin-4-yl)phenyl]-(5-methylpyridazin-3-yl)methanol]	0.007 to 0.03 µM	5 to 10 µM	15 to 25 µM	–
OC(c1cccnn1)c1cc(-c2ncnc3cc(N4CCOCC4)ccc23)c(F)cc1Cl (stereo not drawn) [Example 47, [2-Chloro-4-fluoro-5-(7-morpholin-4-yl-quinazolin-4-yl)phenyl]-pyridazin-3-ylmethanol]	0.003 to 0.007 µM	< 0.5 µM	–	> 25 µM
OC(c1cccnn1)c1cc(-c2ncnc3cc(N4CCOCC4)ccc23)c(F)cc1F (stereo not drawn) [Example 48, [2,4-Difluoro-5-(7-morpholin-4-yl-quinazolin-4-yl)phenyl]-pyridazin-3-ylmethanol]	0.003 to 0.007 µM	0.5 to 5 µM	15 to 25 µM	–
CN(C)C(=O)c1ccc(C(O)c2cc(-c3ncnc4cc(N5CCOCC5)ccc34)c(F)cc2Cl)nn1 (stereo not drawn) [Example 50, 6-{[2-Chloro-4-fluoro-5-(7-morpholin-4-yl-quinazolin-4-yl)phenyl]-hydroxymethyl}-pyridazine-3-carboxylic acid dimethylamide]	0.007 to 0.03 µM	10 to 30 µM	–	> 25 µM
COc1cnc(C(O)c2ccc(F)c(-c3ncnc4cc(N5CCOCC5)ccc34)c2)cn1 (stereo not drawn) [Example 52, [4-Fluoro-3-(7-morpholin-4-yl-quinazolin-4-yl)phenyl]-(5-methoxy-pyrazin-2-yl)methanol]	0.003 to 0.007 µM	5 to 10 µM	–	> 25 µM
COc1cnc(C(O)c2ccc(F)c(-c3ncnc4cc(N5CCOCC5)ccc34)c2)cn1 (stereo not drawn) [Example 53, [4-Fluoro-3-(7-morpholin-4-yl-quinazolin-4-yl)phenyl]-(5-methoxy-pyrazin-2-yl)methanol]	0.003 to 0.007 µM	5 to 10 µM	–	> 25 µM

Continued, in another order:

IC50 [1]	IC50 [3]	Structure (SMILES)	Ki ([2]; Ki [Kv1.11 hERG])	Ki ([2]; read-out: Ki [Kv1.11 hERG])
< 0.003 µM	< 0.5 µM	COc1nccnc1C(O)c1ccc(F)c(-c2ncnc3cc(N4CCOCC4)ccc23)c1 (stereo not drawn) [Example 15, [4-Fluoro-3-(7-morpholin-4-yl-quinazolin-4-yl)phenyl]-(3-methoxy-pyrazin-2-yl)methanol]	15 to 25 µM	–
0.003 to 0.007 µM	0.5 to 5 µM	OC(c1ccc(F)c(-c2ncnc3cc(N4CCOCC4)ccc23)c1)c1c(Cl)cncc1Cl (stereo not drawn) [Example 17, (3,5-Dichloro-pyridin-4-yl)-[4-Fluoro-3-(7-morpholin-4-yl-quinazolin-4-yl)phenyl]-methanol]	10 to 15 µM	–
< 0.003 µM	0.5 to 5 µM	COc1ccnnc1C(O)c1ccc(F)c(-c2ncnc3cc(N4CCOCC4)ccc23)c1 (stereo not drawn) [Example 18, [4-Fluoro-3-(7-morpholin-4-yl-quinazolin-4-yl)phenyl]-(4-methoxy-pyridazin-3-yl)methanol]	15 to 25 µM	–
< 0.003 µM	< 0.5 µM	COc1cnc(Cl)c(C(O)c2ccc(F)c(-c3ncnc4cc(N5CCOCC5)ccc34)c2)c1 (stereo not drawn) [Example 22, (2-Chloro-5-methoxy-pyridin-3-yl)-[4-fluoro-3-(7-morpholin-4-yl-quinazolin-4-yl)phenyl]-methanol]	–	< 10 µM
0.003 to 0.007 µM	< 0.5 µM	COc1ncc(Cl)nc1C(O)c1ccc(F)c(-c2ncnc3cc(N4CCOCC4)ccc23)c1 (stereo not drawn) [Example 25, (6-Chloro-3-methoxy-pyrazin-2-yl)-[4-fluoro-3-(7-morpholin-4-yl-quinazolin-4-yl)phenyl]-methanol]	–	< 10 µM
< 0.003 µM	< 0.5 µM	COc1cnc(Cl)c(C(O)c2ccc(F)c(-c3ncnc4cc(N5CCOCC5)ccc34)c2)n1 (stereo not drawn) [Example 26, (3-Chloro-6-methoxy-pyrazin-2-yl)-[4-fluoro-3-(7-morpholin-4-yl-quinazolin-4-yl)phenyl]-methanol]	–	> 25 µM
< 0.003 µM	< 0.5 µM	O[C@H](c1ccc(F)c(-c2ncnc3cc(N4CCOCC4)ccc23)c1)c1nccnc1Cl [Example 27, (R)-(3-Chloro-pyrazin-2-yl)-[4-fluoro-3-(7-morpholin-4-yl-quinazolin-4-yl)phenyl]-methanol]	–	> 25 µM
< 0.003 µM	< 0.5 µM	COc1cnc(C(O)c2ccc(F)c(-c3ncnc4cc(N5CCOCC5)ccc34)c2)c(Cl)c1 (stereo not drawn) [Example 31, (3-Chloro-5-methoxy-pyridin-2-yl)-[4-fluoro-3-(7-morpholin-4-yl-quinazolin-4-yl)phenyl]-methanol]	10 to 15 µM	–
< 0.003 µM	< 0.5 µM	OC(c1ccc(F)c(-c2ncnc3cc(N4CCOCC4)ccc23)c1)c1nc(Cl)cnc1Cl (stereo not drawn) [Example 35, (3,6-Dichloro-pyrazin-2-yl)-[4-fluoro-3-(7-morpholin-4-yl-quinazolin-4-yl)phenyl]-methanol]	10 to 15 µM	–
< 0.003 µM	< 0.5 µM	OC(c1ccnnc1)c1cc(-c2ncnc3cc(N4CCOCC4)ccc23)c(F)cc1Cl (stereo not drawn) [Example 36, [2-Chloro-4-fluoro-5-(7-morpholin-4-yl-quinazolin-4-yl)phenyl]-pyridazin-4-ylmethanol]	–	> 25 µM
< 0.003 µM	< 0.5 µM	OC(c1ccc(F)c(-c2ncnc3cc(N4CCOCC4)sc23)c1)c1nccnc1Cl (stereo not drawn) [Example 37, (3-Chloropyrazin-2-yl)-[4-fluoro-3-(6-morpholin-4-ylthieno[3,2-d]pyrimidin-4-yl)phenyl]-methanol]	10 to 15 µM	–
< 0.003 µM	< 0.5 µM	COc1nccnc1C(O)c1ccc(F)c(-c2ncnc3cc(N4CCOCC4)ccc23)c1 (stereo not drawn) [Example 38, [4-Fluoro-3-(7-morpholin-4-yl-quinazolin-4-yl)phenyl]-(3-methoxy-pyrazin-2-yl)methanol]	–	> 25 µM
0.003 to 0.007 µM	< 0.5 µM	OC(c1ccn2nccc2n1)c1cc(-c2ncnc3cc(N4CCOCC4)ccc23)c(F)cc1Cl (stereo not drawn) [Example 39, [2-Chloro-4-fluoro-5-(7-morpholin-4-yl-quinazolin-4-yl)phenyl]-pyrazolo[1,5-a]-pyrimidin-5-ylmethanol]	15 to 25 µM	–
0.003 to 0.007 µM	< 0.5 µM	OC(c1ccc(Cl)nn1)c1cc(-c2ncnc3cc(N4CCOCC4)ccc23)c(F)cc1Cl (stereo not drawn) [Example 41, [2-Chloro-4-fluoro-5-(7-morpholin-4-yl-quinazolin-4-yl)phenyl]-(6-chloro-pyridazin-3-yl)methanol]	15 to 25 µM	–
< 0.003 µM	< 0.5 µM	OC(c1ccc(F)c(-c2ncnc3cc(N4CCOCC4)ccc23)c1)c1ncccc1Cl (stereo not drawn) [Example 42, (3-Chloro-pyridin-2-yl)-[4-fluoro-3-(7-morpholin-4-yl-quinazolin-4-yl)phenyl]-methanol]	15 to 25 µM	–
< 0.003 µM	0.5 to 5 µM	OC(c1ccc(Cl)nn1)c1cc(-c2ncnc3cc(N4CCOCC4)ccc23)c(F)cc1F (stereo not drawn) [Example 49, (6-Chloro-pyridazin-3-yl)-[2,4-difluoro-5-(7-morpholin-4-yl-quinazolin-4-yl)phenyl]-methanol]	–	> 25 µM
< 0.003 µM	< 0.5 µM	OC(c1ccc2nccn2n1)c1cc(-c2ncnc3cc(N4CCOCC4)ccc23)c(F)cc1F (stereo not drawn) [Example 51, [2,4-Difluoro-5-(7-morpholin-4-yl-quinazolin-4-yl)phenyl]-imidazo[1,2-b]pyridazin-6-ylmethanol]	15 to 25 µM	–
